Measured values reported in the supplement of paper PMC10307832.

Columns and labels:
Assay in all cases: relative viability (nuclei count vs DMSO), 5 days (fraction); higher = more cells survive
[1] = compound: C1CN(CCC1C(C2=CC3=C(C=C2)OCO3)(C4=CC5=C(C=C4)OCO5)O)C(=O)OC6=CC=C(C=C6)[N+](=O)[O-] [JZL-184] + Cc1cc(Nc2cc(N3CCN(C)CC3)nc(Sc3ccc(NC(=O)C4CC4)cc3)n2)n[nH]1 [Tozasertib] (partner 0.1 µM)
In short: (§1)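 Lung cancer cell lines in 1536-well plates got either a single drug or a fixed anchor-drug dose together with five library-drug doses (not always all listed) in √10 steps, by pin tool, on the day after seeding. Nuclei were counted after 5 days, and relative viability is the treated-to-vehicle ratio of nuclei counts. Values are medians of duplicate plates.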

[2] = compound: C1CN(CCC1C(C2=CC3=C(C=C2)OCO3)(C4=CC5=C(C=C4)OCO5)O)C(=O)OC6=CC=C(C=C6)[N+](=O)[O-] [JZL-184] + C[C@]1(O)C[C@@H](c2nc(-c3ccc4ccc(-c5ccccc5)nc4c3)c3c(N)nccn32)C1 [Linsitinib] (partner 1 µM)
In short: as §1

[3] = compound: C1CN(CCC1C(C2=CC3=C(C=C2)OCO3)(C4=CC5=C(C=C4)OCO5)O)C(=O)OC6=CC=C(C=C6)[N+](=O)[O-] [JZL-184] + Cc1nc(Nc2ncc(C(=O)Nc3c(C)cccc3Cl)s2)cc(N2CCN(CCO)CC2)n1 [Dasatinib] (partner 0.075 µM)
In short: as §1

[4] = compound: C1CN(CCC1C(C2=CC3=C(C=C2)OCO3)(C4=CC5=C(C=C4)OCO5)O)C(=O)OC6=CC=C(C=C6)[N+](=O)[O-] [JZL-184] + O=C(c1cc(Cc2n[nH]c(=O)c3ccccc23)ccc1F)N1CCN(C(=O)C2CC2)CC1 [Olaparib] (partner 8 µM)
In short: as §1

[5] = compound: C1CN(CCC1C(C2=CC3=C(C=C2)OCO3)(C4=CC5=C(C=C4)OCO5)O)C(=O)OC6=CC=C(C=C6)[N+](=O)[O-] [JZL-184] + O=C(CCCCCCC(=O)Nc1ccccc1)NO [Vorinostat] (partner 1 µM)
In short: as §1

Cell Line	relative viability ([1]; first compound 0.04 µM)	relative viability ([1]; first compound 0.4 µM)	relative viability ([1]; first compound 1.265 µM)	relative viability ([1]; first compound 4 µM)	relative viability ([2]; first compound 0.04 µM)	relative viability ([2]; first compound 0.4 µM)	relative viability ([2]; first compound 1.265 µM)	relative viability ([2]; first compound 4 µM)	relative viability ([3]; first compound 0.04 µM)	relative viability ([3]; first compound 0.4 µM)	relative viability ([3]; first compound 1.265 µM)	relative viability ([3]; first compound 4 µM)	relative viability ([4]; first compound 0.04 µM)	relative viability ([4]; first compound 1.265 µM)	relative viability ([4]; first compound 4 µM)	relative viability ([5]; first compound 0.04 µM)	relative viability ([5]; first compound 1.265 µM)	relative viability ([5]; first compound 4 µM)	relative viability ([4]; first compound 0.4 µM)	relative viability ([5]; first compound 0.4 µM)
NCI-H23	0.375	0.307	0.414	0.316	0.552	0.56	0.651	0.728	0.896	0.81	0.864	0.751	0.388	0.303	0.366	0.62	0.673	0.502	–	–
NCI-H322M	0.441	0.444	0.49	0.401	0.823	0.938	0.984	0.907	0.252	0.265	0.264	0.252	0.785	0.774	0.733	0.882	0.867	0.684	0.591	0.784
NCI-H358	0.104	0.118	0.0969	0.101	0.889	0.738	0.848	0.708	0.167	0.134	0.15	0.155	0.804	0.599	0.592	0.776	0.677	0.69	0.637	0.768
NCI-H441	0.769	0.567	0.533	0.513	0.534	0.401	0.672	0.606	0.584	0.546	0.606	0.524	0.714	0.659	0.463	0.793	0.784	0.697	0.473	1.02
NCI-H460	0.428	0.604	0.571	0.275	1.03	0.623	0.87	0.72	0.62	0.394	0.553	0.503	0.337	0.458	0.394	0.675	0.779	0.624	0.427	0.597
NCI-H520	0.424	0.407	0.581	0.413	1.15	0.929	0.926	0.897	0.188	0.2	0.178	0.168	0.39	0.351	0.304	0.884	0.798	0.678	0.369	0.683
NCI-H596	0.878	0.932	0.861	0.931	1.21	0.978	1.05	1.05	0.739	0.437	0.658	0.566	0.669	0.721	0.753	0.701	0.501	0.556	0.728	0.63
NCI-H647	0.388	0.425	0.46	0.252	1.18	1.06	1.19	1.26	0.177	0.174	0.283	0.145	0.654	0.471	0.564	0.898	0.892	0.4	0.481	0.635
NCI-H650	0.84	0.731	0.848	0.761	0.966	0.62	0.933	0.747	0.439	0.392	0.472	0.441	0.427	0.438	0.381	0.518	0.422	0.414	0.369	0.369
NCI-H661	0.364	0.354	0.337	0.325	0.542	0.477	0.712	0.521	0.95	0.851	0.907	0.867	0.825	0.731	0.748	0.865	0.975	0.772	0.712	0.714
NCI-H727	0.594	0.568	0.777	0.583	0.203	0.314	0.233	0.373	0.37	0.443	0.398	0.334	0.661	0.747	0.552	1.26	1.08	1.05	0.723	1.14
NCI-H838	0.285	0.299	0.294	0.238	1.23	1.05	0.98	0.98	0.286	0.307	0.289	0.3	0.994	0.766	0.722	0.791	0.738	0.636	0.737	0.72
NCI-H1355	0.589	0.515	0.612	0.433	0.606	0.856	0.842	0.8	0.723	0.662	0.783	0.672	0.775	0.78	0.707	0.684	0.672	0.618	0.708	0.63
NCI-H1395	0.684	0.738	0.827	0.748	1.12	1.4	1.19	0.99	0.424	0.435	0.414	0.404	0.486	0.407	0.444	0.651	0.811	0.683	0.458	0.621
NCI-H1437	0.395	0.398	0.397	0.402	1.24	1.01	1.07	0.958	0.414	0.304	0.434	0.405	0.665	0.632	0.636	0.731	0.756	0.659	0.61	0.725
